Results reported in ChEMBL document CHEMBL1201862, “PubChem BioAssay data set” (2004).
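Protocol summary: plate cells (96-well), add compound at 5 concentrations, incubate 48 h, interpolate endpoints linearly. GI50 = concentration required for 50% inhibition of growth.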 Active and inactive are the calls of the source. No stated cut-off is given here; in the data, active = GI50 up to about 1.1 µM and inactive = higher.

How the values were obtained:
Assay in all cases: NCI tumour cell line growth inhibition, 48 h
[1] = tested on: DLD-1
[2] = tested on: DMS-114
[3] = tested on: KM-20L2
[4] = tested on: LXFL 529
[5] = tested on: M19-MEL
[6] = tested on: RXF 631
[7] = tested on: SNB-78
[8] = tested on: XF498
[9] = tested on: HOP-18

Row | Structure (SMILES) | GI50 [1] | GI50 [2] | GI50 [3] | GI50 [4] | GI50 [5] | GI50 [6] | GI50 [7] | GI50 [8] | GI50 [9]
1 | COC(=O)C(Cc1c[nH]c2ccccc12)NC(=O)C(Cc1c[nH]c2ccccc12)NC(=O)OCc1ccccc1 (stereo unspecified) | 18.5 µM (inactive) | 19.4 µM (inactive) | 18.2 µM (inactive) | 16.7 µM (inactive) | 18.4 µM (inactive) | 24 µM (inactive) | 25.8 µM (inactive) | 14.8 µM (inactive) | –
2 | CCOC(=O)C1N(S(=O)(=O)c2ccc(C)cc2)CCC12c1ccccc1N(C(C)=O)C2c1ccc(OC)c(OC)c1 (stereo unspecified) | 78.2 µM (inactive) | > 100 µM (inactive) | > 100 µM (inactive) | > 100 µM (inactive) | > 100 µM (inactive) | – | > 100 µM (inactive) | 21.7 µM (inactive) | –
3 | COCOCc1cc(OCc2ccccc2)c(OC)cc1Br | > 100 µM (inactive) | – | > 100 µM (inactive) | – | > 100 µM (inactive) | – | > 100 µM (inactive) | > 100 µM (inactive) | > 100 µM (inactive)
4 | O=c1[nH]c2c(c3ccccc13)CCc1ccccc1-2 | – | > 100 µM (inactive) | > 100 µM (inactive) | > 100 µM (inactive) | > 100 µM (inactive) | – | > 100 µM (inactive) | – | –
5 | O=C(NCC#CCO)C(F)(F)F | > 100 µM (inactive) | > 100 µM (inactive) | – | – | – | > 100 µM (inactive) | > 100 µM (inactive) | > 100 µM (inactive) | –
6 | COc1ccc(-c2onc(-c3ccc([N+](=O)[O-])cc3)c2C2=NCCN2)cc1 | 74.1 µM (inactive) | – | > 100 µM (inactive) | 35.5 µM (inactive) | > 100 µM (inactive) | – | 67.3 µM (inactive) | 66.7 µM (inactive) | 87.5 µM (inactive)
7 | CCCCCCCCCCCCCCCCCCNC(=O)OCC(CNS(=O)(=O)CCC[n+]1cccc2ccccc21)COC (stereo unspecified) | 2.85 µM (inactive) | 1.18 µM (inactive) | 0.776 µM (active) | 1.21 µM (inactive) | 1.2 µM (inactive) | – | 1.23 µM (inactive) | 1.43 µM (inactive) | 3.32 µM (inactive)
8 | Cc1nc2c(N)ncnc2o1 | > 100 µM (inactive) | > 100 µM (inactive) | > 100 µM (inactive) | > 100 µM (inactive) | > 100 µM (inactive) | > 100 µM (inactive) | > 100 µM (inactive) | – | > 100 µM (inactive)
9 | COc1c2c(cc3c1C(=O)Cc1ccc4c(c1CN(C)CC3)OCO4)OCO2 | > 100 µM (inactive) | 39.4 µM (inactive) | 38.2 µM (inactive) | – | > 100 µM (inactive) | 44.8 µM (inactive) | > 100 µM (inactive) | – | 20.7 µM (inactive)
10 | COc1ccc2c(C(=O)O)cc3ccccc3c2c1OC | 30.9 µM (inactive) | 17.7 µM (inactive) | 22.8 µM (inactive) | 17.1 µM (inactive) | 21.3 µM (inactive) | – | 16.9 µM (inactive) | 15.8 µM (inactive) | 15.5 µM (inactive)
11 | O=[N+]([O-])C(=C(c1ccccc1)c1ccccc1)[N+](=O)[O-] | 3.46 µM (inactive) | 18.7 µM (inactive) | 17.2 µM (inactive) | 15.6 µM (inactive) | – | – | > 10 µM (inactive) | – | –
12 | Cc1nc2c(n1CCC(C)C)C(=O)c1ccccc1C2=O | 11.1 µM (inactive) | – | 28.5 µM (inactive) | 13.1 µM (inactive) | 14.5 µM (inactive) | – | 28.1 µM (inactive) | 17.2 µM (inactive) | –
13 | CN/N=C(\C)CC(=O)Nc1cccc(Cl)c1C | > 100 µM (inactive) | > 100 µM (inactive) | > 100 µM (inactive) | > 100 µM (inactive) | > 100 µM (inactive) | > 100 µM (inactive) | > 100 µM (inactive) | > 100 µM (inactive) | > 100 µM (inactive)
14 | CC[C@](C)(O)C(=O)O[C@H]1C(=O)O[C@@H]2C[C@H]3C(C)=C[C@H](O)[C@@H](O)[C@]3(C)[C@H]3[C@@]4(O)OC[C@]32[C@@H]1[C@@H](C)[C@H]4O | 6.11 µM (inactive) | 3.68 µM (inactive) | 47.1 µM (inactive) | – | 11 µM (inactive) | – | 29.2 µM (inactive) | 11.9 µM (inactive) | 59.7 µM (inactive)
15 | CC(=O)Nc1ccc(OCC(O)CO)cc1 (stereo unspecified) | 23.2 µM (inactive) | – | > 100 µM (inactive) | 52.8 µM (inactive) | > 100 µM (inactive) | – | > 100 µM (inactive) | > 100 µM (inactive) | > 100 µM (inactive)
16 | C=CCN1CCC23c4c5ccc(O)c4OC2C(=NN=C2CCC4(O)C6Cc7ccc(O)c8c7C4(CCN6CC=C)C2O8)CCC3(O)C1C5 (stereo unspecified) | 38.7 µM (inactive) | 24.7 µM (inactive) | 23.3 µM (inactive) | 32.1 µM (inactive) | – | 20.5 µM (inactive) | 27.2 µM (inactive) | 17.3 µM (inactive) | > 100 µM (inactive)
17 | Cc1cc2c(=O)c3ccc(Cl)cc3[nH]c2c(C(=O)O)c1C | > 100 µM (inactive) | > 100 µM (inactive) | > 100 µM (inactive) | > 100 µM (inactive) | > 100 µM (inactive) | – | > 100 µM (inactive) | > 100 µM (inactive) | > 100 µM (inactive)
18 | CC(C)(C)C(=O)Nc1ccccc1Br | > 100 µM (inactive) | > 100 µM (inactive) | > 100 µM (inactive) | > 100 µM (inactive) | > 100 µM (inactive) | – | – | > 100 µM (inactive) | –
19 | Cc1cc(N)c2cc(NC(=O)CCCCCCCCC(=O)Nc3ccc4nc(C)cc(N)c4c3)ccc2n1 | > 100 µM (inactive) | – | 29.1 µM (inactive) | 4.37 µM (inactive) | 15.4 µM (inactive) | – | > 100 µM (inactive) | > 27.2 µM (inactive) | > 100 µM (inactive)
20 | CCCCN(CCCC)CCCn1cnc2ncccc2c1=O | > 100 µM (inactive) | 53.6 µM (inactive) | > 100 µM (inactive) | > 100 µM (inactive) | > 100 µM (inactive) | – | > 100 µM (inactive) | > 100 µM (inactive) | –
21 | COc1ccc(C(=O)C(C(=O)CCC(=O)Nc2ccc(Cl)c(Cl)c2)c2ccc(OC)cc2)cc1 (stereo unspecified) | > 100 µM (inactive) | > 100 µM (inactive) | > 100 µM (inactive) | > 100 µM (inactive) | > 100 µM (inactive) | > 100 µM (inactive) | > 100 µM (inactive) | > 100 µM (inactive) | > 100 µM (inactive)
22 | CCC(C)CCOC(=O)c1ccc(/N=C\c2ccc(/C=N/c3ccc(C(=O)OCCC(C)CC)cc3)cc2)cc1 (stereo unspecified) | > 100 µM (inactive) | > 100 µM (inactive) | > 100 µM (inactive) | > 100 µM (inactive) | – | – | > 100 µM (inactive) | – | > 100 µM (inactive)
23 | C=CC1=CC(C)C[C@]1(O)C(=O)OC (stereo partly specified) | < 0.01 µM (active) | < 0.01 µM (active) | > 100 µM (inactive) | < 0.01 µM (active) | < 0.01 µM (active) | < 0.01 µM (active) | > 100 µM (inactive) | < 0.01 µM (active) | > 100 µM (inactive)
24 | CSc1ccc2c(cc1=O)C(NC(=O)c1ccc(OC(C)=O)cc1)CCc1cc(O)c(O)c(O)c1-2 (stereo unspecified) | 17.8 µM (inactive) | 19.8 µM (inactive) | 37.5 µM (inactive) | 17.3 µM (inactive) | 12.8 µM (inactive) | – | 30.8 µM (inactive) | – | –
25 | CCCN(CCC)c1c([N+](=O)[O-])cc(C(N)=O)cc1[N+](=O)[O-] | > 100 µM (inactive) | 71.9 µM (inactive) | – | > 100 µM (inactive) | 48.5 µM (inactive) | – | – | 81.3 µM (inactive) | –
26 | CC12CCC(=O)N1c1ccc([N+](=O)[O-])cc1N2 (stereo unspecified) | > 100 µM (inactive) | > 100 µM (inactive) | > 100 µM (inactive) | > 100 µM (inactive) | > 100 µM (inactive) | – | > 100 µM (inactive) | – | > 100 µM (inactive)
